Laboratory results as given in DBAASP.
Converted amounts (≈) assume the structure as drawn. One block for each compound: values may come before it.

Assays:
Test in all cases: ≥ marks a high value that may be exact or a test limit, other limits are often not marked, values filed in µg/mL are converted to µM
[1] = system: Bacillus cereus ATCC 14579
[2] = system: Bacillus subtilis ATCC 23857
[3] = system: Candida albicans ATCC 90028
[4] = system: Cryptococcus neoformans ATCC 28957
[5] = system: Escherichia coli ATCC 25922
[6] = system: Fusarium oxysporum f.sp. vasinfectum
Fusarium oxysporum = system: Fusarium oxysporum
Fusarium solani = system: Fusarium solani
[7] = system: Pectobacterium carotovorum
[8] = system: Pseudomonas syringae pv. tabaci
Ramulariopsis gossypii = system: Ramulariopsis gossypii
Rhizoctonia solani = system: Rhizoctonia solani
[9] = system: Staphylococcus aureus ATCC 25923
Trichoderma asperellum = system: Trichoderma asperellum
[10] = system: Xanthomonas campestris pv. citri
[11] = system: Aeromonas salmonicida RFAS1
[12] = system: Edwardsiella tarda FP4130
[13] = system: Streptococcus iniae FP5228
[14] = system: Vibrio alginolyticus KCCM 2928
[15] = system: Vibrio harveyi ATCC 14126
[16] = system: Vibrio ordalii KCCM 41669
[17] = system: Candida glabrata ATCC 90030
Candida krusei ATCC 6258 = system: Candida krusei ATCC 6258
[18] = system: Enterobacter cloacae ATCC 13047
[19] = system: Enterococcus faecalis ATCC 4028
[20] = system: Pseudomonas aeruginosa ATCC 27853
[21] = system: Staphylococcus aureus ATCC 29213
[22] = system: Staphylococcus epidermidis ATCC 12228
[23] = system: Bacillus cereus ATCC 11778
[24] = system: Enterococcus faecalis ATCC 29212
Escherichia coli O157 = system: Escherichia coli O157
[25] = system: Salmonella enterica subsp. enterica serovar Typhimurium ATCC 13311
[26] = system: Shigella sonnei ATCC 11060
[27] = system: Staphylococcus aureus ATCC 43300
Vibrio cholerae O1 Inaba = system: Vibrio cholerae O1 Inaba
[28] = system: Candida albicans ATCC 10231
Candida krusei CBS 573 = system: Candida krusei CBS 573
[29] = system: Candida parapsilosis CBS 604
[30] = system: Saccharomyces cerevisiae SZMC 0644
[31] = system: Escherichia coli K-12 594
[32] = system: Staphylococcus aureus ATCC 6538P
[33] = system: Staphylococcus aureus SR1550
[34] = system: Acinetobacter baumannii ATCC 19606
[35] = system: Klebsiella pneumoniae ATCC 13883
[36] = system: Pseudomonas aeruginosa ATCC 47085

Structure (SMILES): CC[C@H](C)[C@H](NC(=O)[C@H](Cc1cnc[nH]1)NC(=O)CNC(=O)[C@H](Cc1ccccc1)NC(=O)[C@@H](N)Cc1ccccc1)C(=O)N[C@@H](Cc1c[nH]c2ccccc12)C(=O)N[C@@H](Cc1cnc[nH]1)C(=O)NCC(=O)N[C@@H](C)C(=O)N[C@@H](CCCN=C(N)N)C(=O)N[C@H](C(=O)N[C@@H](CC(C)C)C(=O)N[C@@H](Cc1ccccc1)C(=O)N[C@@H](CCCN=C(N)N)C(=O)N[C@@H](CC(=O)O)C(=O)N[C@H](C(=O)N[C@@H](Cc1ccccc1)C(=O)N[C@@H](C)C(N)=O)C(C)C)[C@@H](C)O [FFGHIWHGARTLFRDVFA]
MIC [1]: ≥ 64 µM
MIC [2]: 3.33 µM (≈ 7.25 µg/mL)
MIC [3]: ≥ 32 µM
MIC [4]: ≥ 32 µM
MIC [5]: 8 µM (≈ 17.4 µg/mL)
MIC [6]: 13.3 µM (≈ 29 µg/mL)
MIC (Fusarium oxysporum): 16 µM (≈ 34.8 µg/mL)
MIC (Fusarium solani): 8 µM (≈ 17.4 µg/mL)
MIC [7]: ≥ 32 µM
MIC [8]: 4 µM (≈ 8.71 µg/mL)
MIC (Ramulariopsis gossypii): 16 µM (≈ 34.8 µg/mL)
MIC (Rhizoctonia solani): ≥ 32 µM
MIC [9]: 8 µM (≈ 17.4 µg/mL)
MIC (Trichoderma asperellum): 8 µM (≈ 17.4 µg/mL)
MIC [10]: ≥ 32 µM

Structure (SMILES): CC[C@H](C)[C@H](NC(=O)[C@H](CC(C)C)NC(=O)CNC(=O)[C@H](CCCCN)NC(=O)[C@@H](NC(=O)[C@H](CC(C)C)NC(=O)[C@H](CCCCN)NC(=O)[C@@H]1CCCN1C(=O)[C@@H](NC(=O)[C@H](CC(C)C)NC(=O)[C@H](CO)NC(=O)[C@H](Cc1ccccc1)NC(=O)[C@@H](N)Cc1ccccc1)[C@@H](C)CC)C(C)C)C(=O)N[C@@H](CO)C(=O)N[C@@H](C)C(=O)N[C@@H](Cc1ccccc1)C(=O)N[C@@H](CCCCN)C(N)=O [FFSLIPKLVKGLISAFK]
MIC [3]: 9.38 µM (≈ 17.9 µg/mL)
MIC [17]: 18.8 µM (≈ 35.8 µg/mL)
MIC (Candida krusei ATCC 6258): ≥ 37.5 µM
MIC [18]: 18.8 µM (≈ 35.8 µg/mL)
MIC [19]: 1.17 µM (≈ 2.23 µg/mL)
MIC [5]: 4.69 µM (≈ 8.95 µg/mL)
MIC [20]: 9.38 µM (≈ 17.9 µg/mL)
MIC [21]: 2.34 µM (≈ 4.46 µg/mL)
MIC [22]: 1.17 µM (≈ 2.23 µg/mL)

Structure (SMILES): CC(C)C[C@H](NC(=O)CNC(=O)[C@H](CCCN=C(N)N)NC(=O)[C@H](CS)NC(=O)[C@H](CC(=O)O)NC(=O)CNC(=O)CNC(=O)[C@H](CO)NC(=O)[C@@H](N)Cc1ccccc1)C(=O)N[C@@H](CCCN=C(N)N)C(=O)N[C@@H](CCCN=C(N)N)C(=O)N[C@@H](CCCN=C(N)N)C(=O)N[C@@H](CS)C(=O)N[C@@H](Cc1ccccc1)C(=O)N[C@@H](CS)C(=O)N[C@H](C(=O)N[C@@H](CCCN=C(N)N)C(N)=O)[C@@H](C)O [FSGGDCRGLRRRCFCTR]
MIC [23]: ≥ 251 µM
MIC [24]: 251 µM (≈ 500 µg/mL)
MIC [5]: > 251 µM
MIC (Escherichia coli O157): ≥ 229 µM
MIC [20]: > 251 µM
MIC [25]: 31.4 µM (≈ 62.5 µg/mL)
MIC [26]: ≥ 126 µM
MIC [9]: > 251 µM
MIC [27]: > 251 µM
MIC [22]: 15.7 µM (≈ 31.2 µg/mL)
MIC (Vibrio cholerae O1 Inaba): ≥ 126 µM

Structure (SMILES): CC(=O)N[C@@H](CCCN=C(N)N)C(=O)N1CCC[C@H]1C(=O)N[C@@H](CC(=O)O)C(=O)N[C@@H](CCCCN)C(=O)N1CCC[C@H]1C(=O)N[C@@H](CCCN=C(N)N)C(=O)N1CCC[C@H]1C(=O)N[C@@H](Cc1ccc(O)cc1)C(=O)N[C@@H](CC(C)C)C(=O)N1CCC[C@H]1C(=O)N[C@@H](CCCN=C(N)N)C(=O)N1CCC[C@H]1C(=O)N[C@@H](CCCN=C(N)N)C(=O)N1CCC[C@H]1C(=O)N1CCC[C@H]1C(=O)N[C@@H](CCCN=C(N)N)C(=O)N1CCC[C@H]1C(=O)N[C@H](C(=O)N[C@@H](CCCN=C(N)N)C(N)=O)C(C)C [RPDKPRPYLPRPRPPRPVR]
MIC [34]: > 100 µM
MIC [5]: 2.6 µM (≈ 6.22 µg/mL)
MIC [35]: 2 µM (≈ 4.78 µg/mL)
MIC [36]: ≥ 100 µM

Second part, the compound after the results:

MIC [11]: 7.8 µM (≈ 14.6 µg/mL)
MIC [12]: ≥ 62.5 µM
MIC [13]: 15.6 µM (≈ 29.1 µg/mL)
MIC [14]: 7.8 µM (≈ 14.6 µg/mL)
MIC [15]: ≥ 125 µM
MIC [16]: 2 µM (≈ 3.73 µg/mL)
Structure (SMILES): CC[C@H](C)[C@H](NC(=O)[C@H](CC(N)=O)NC(=O)[C@H](CCCCN)NC(=O)[C@H](Cc1c[nH]c2ccccc12)NC(=O)CNC(=O)[C@H](CCC(=O)O)NC(=O)[C@H](CCCCN)NC(=O)[C@H](CC(C)C)NC(=O)[C@H](CCC(=O)O)NC(=O)[C@H](CCC(N)=O)NC(=O)[C@H](Cc1ccccc1)NC(=O)[C@@H](N)Cc1ccccc1)C(=O)N[C@@H](CCCCN)C(=O)N[C@@H](CCCCN)C(=O)N[C@@H](C)C(=O)O [FFQELKEGWKNIKKA]

MIC [28]: 42.5 µM (≈ 49.9 µg/mL)
MIC (Candida krusei CBS 573): ≥ 42.5 µM
MIC [29]: ≥ 42.5 µM
MIC [30]: ≥ 42.5 µM
Structure (SMILES): NCCCC[C@@H]1NC(=O)[C@H](CCCCN)NC(=O)[C@H](Cc2cnc[nH]2)NC(=O)[C@H](CCCCN)NC(=O)[C@@H](NC(=O)[C@H](CC(N)=O)NC(=O)[C@@H](N)CC(N)=O)CSSC[C@@H](C(=O)O)NC(=O)CNC(=O)[C@H](CO)NC(=O)CNC1=O [NNCKHKKGSGC]

MIC [31]: 15.8 µM (≈ 20 µg/mL)
MIC [32]: 1.58 µM (≈ 2 µg/mL)
MIC [33]: 27.7 µM (≈ 35 µg/mL)
Structure (SMILES): CC(C)C[C@H](NC(=O)[C@H](CCCN=C(N)N)NC(=O)[C@H](CC(C)C)NC(=O)[C@H](CC(C)C)NC(=O)[C@H](CC(C)C)NC(=O)[C@H](CC(C)C)NC(=O)[C@H](CCCCN)NC(=O)[C@H](CC(C)C)NC(=O)[C@@H](N)CCCN=C(N)N)C(=O)N[C@@H](CCCCN)C(N)=O [RLKLLLLRLK]
